Literature values, collected in patent US20220088150A1, “Octreotide Microsphere-Based Arterial Embolization for Treating Obesity” (Biovena Science, LLC, priority 2018, published 2022).

Assays:
insulin hypersecretion = settings: six months, 5-15 μg/kg/day
ghrelin secretion = settings: continuous infusion, dose- and time-dependent
[1] = subcutaneously 5-15 μg/kg/day, six months, compared with placebo

SMILES: C[C@@H](O)[C@@H]1NC(=O)[C@H](CCCCN)NC(=O)[C@@H](Cc2c[nH]c3ccccc23)NC(=O)[C@H](Cc2ccccc2)NC(=O)[C@@H](NC(=O)[C@H](N)Cc2ccccc2)CSSC[C@@H](C(=O)N[C@H](CO)[C@@H](C)O)NC1=O [octreotide, D-phenylalanyl-L-cysteinyl-L-phenylalanyl-D-tryptophyl-L-lysyl-L-threonyl-L-cysteinyl-L-threoninol (2→7)-disulfide]
- calorie intake decrease (insulin hypersecretion): approximately 700 kcal/day
- BMI (insulin hypersecretion; vs pre-study observation period, p=0.0001): BMI decrease
- weight loss (insulin hypersecretion; vs six-month pre-study observation period, p=0.04): greater weight loss
- ghrelin secretion (ghrelin secretion): suppresses ghrelin secretion
- splanchnic blood flow (healthy human subjects): reduces splanchnic blood flow
- gastric emptying (human, in vivo): delays gastric emptying
- weight and BMI [1]: effective in stabilizing weight and BMI
